From BindingDB's records for doi:10.1021/jm00015a003 (Warner-Lambert, 1995) come the findings set out here.

Counter-ions that a name gives are not always drawn. Square brackets hold non-standard residues; d marks the D form. Peptide text beside a SMILES is read from it. * marks the point of attachment. dDip = N[C@@H](C(=O)O)C(c1ccccc1)c1ccccc1; Dip = N[C@H](C(=O)O)C(c1ccccc1)c1ccccc1; Orn = NCCC[C@H](N)C(=O)O; Tfa = O=C(C(F)(F)F)*

The nature of this test: Inhibition of ET-1 stimulated arachidonic acid release in rabbit renal vascular smooth muscle cells.
In general, IC50 refers to the concentration needed to halve the response being measured. Take `CC[C@H](C)[C@H](NC(=O)[C@H](CC(=O)O)NC(=O)[C@H](CC(C)C)NC(=O)[C@H](NC(C)=O)C(c1ccccc1)c1ccccc1)C(=O)N[C@H](C(=O)N[C@@H](Cc1ccccc1)C(=O)O)[C@@H](C)CC` [(S)-3-[(S)-2-((S)-2-Acetylamino-3,3-diphenyl-propionylamino)-4-methyl-pentanoylamino]-N-{(1S,2S)-1-[(1S,2S)-1-(1-carboxy-2-phenyl-ethylcarbamoyl)-2-methyl-butylcarbamoyl]-2-methyl-butyl}-succinamic acid]: the IC50 is over 10000 nM. The same measure for `CC[C@H](C)[C@H](NC(=O)[C@H](CC(=O)O)NC(=O)[C@H](CC(C)C)NC(=O)[C@@H](NC(=O)C(F)(F)F)C(c1ccccc1)c1ccccc1)C(=O)N[C@H](C(=O)N[C@@H](Cc1c[nH]c2ccccc12)C(=O)O)[C@@H](C)CC` [(S)-N-((1S,2S)-1-{(1S,2S)-1-[(S)-1-Carboxy-2-(1H-indol-3-yl)-ethylcarbamoyl]-2-methyl-butylcarbamoyl}-2-methyl-butyl)-3-{(S)-2-[(S)-3,3-diphenyl-2-(2,2,2-trifluoro-acetylamino)-propionylamino]-4-methyl-pentanoylamino}-succinamic acid] (Tfa-[Dip]LDIIW-OH): 1700 nM; for `CC[C@H](C)[C@H](NC(=O)[C@H](CC(=O)O)NC(=O)[C@H](CC(C)C)NC(=O)[C@H](NC(C)=O)C(c1ccccc1)c1ccccc1)C(=O)N[C@H](C(=O)N[C@@H](Cc1c[nH]c2ccccc12)C(N)=O)[C@@H](C)CC` [(S)-3-[(S)-2-((S)-2-Acetylamino-3,3-diphenyl-propionylamino)-4-methyl-pentanoylamino]-N-((1S,2S)-1-{(1S,2S)-1-[(S)-1-carbamoyl-2-(1H-indol-3-yl)-ethylcarbamoyl]-2-methyl-butylcarbamoyl}-2-methyl-butyl)-succinamic acid] (Ac-[dDip]LDIIW-NH2): 6000 nM; for `CC[C@H](C)[C@H](NC(=O)[C@H](C)NC(=O)[C@H](CC(=O)O)NC(=O)[C@H](CC(C)C)NC(=O)[C@H](NC(C)=O)C(c1ccccc1)c1ccccc1)C(=O)N[C@@H](Cc1c[nH]c2ccccc12)C(=O)O` [(S)-3-[(S)-2-((S)-2-Acetylamino-3,3-diphenyl-propionylamino)-4-methyl-pentanoylamino]-N-((S)-1-{(1S,2S)-1-[(S)-1-carboxy-2-(1H-indol-3-yl)-ethylcarbamoyl]-2-methyl-butylcarbamoyl}-ethyl)-succinamic acid]: 420 nM. To `CC[C@H](C)[C@H](NC(=O)[C@@H](NC(=O)[C@H](CC(=O)O)NC(=O)[C@H](CC(C)C)NC(=O)[C@@H](NC(C)=O)C(c1ccccc1)c1ccccc1)C(C)C)C(=O)N[C@@H](Cc1c[nH]c2ccccc12)C(=O)O` [(S)-3-[(S)-2-((S)-2-Acetylamino-3,3-diphenyl-propionylamino)-4-methyl-pentanoylamino]-N-((S)-1-{(1S,2S)-1-[(S)-1-carboxy-2-(1H-indol-3-yl)-ethylcarbamoyl]-2-methyl-butylcarbamoyl}-2-methyl-propyl)-succinamic acid] (Ac-[Dip]LDVIW-OH) belongs 29 nM; to `CC[C@H](C)[C@H](NC(=O)[C@H](CC(=O)O)NC(=O)[C@@H](Cc1ccccc1)NC(=O)[C@@H](NC(C)=O)C(c1ccccc1)c1ccccc1)C(=O)N[C@H](C(=O)N[C@@H](Cc1c[nH]c2ccccc12)C(=O)O)[C@@H](C)CC` [(S)-3-[(R)-2-((S)-2-Acetylamino-3,3-diphenyl-propionylamino)-3-phenyl-propionylamino]-N-((1S,2S)-1-{(1S,2S)-1-[(S)-1-carboxy-2-(1H-indol-3-yl)-ethylcarbamoyl]-2-methyl-butylcarbamoyl}-2-methyl-butyl)-succinamic acid], 520 nM.

Consider `CC[C@H](C)[C@H](NC(=O)[C@H](CC(=O)O)NC(=O)[C@H](CCCNC(=N)N)NC(=O)[C@H](NC(C)=O)C(c1ccccc1)c1ccccc1)C(=O)N[C@H](C(=O)N[C@@H](Cc1c[nH]c2ccccc12)C(=O)O)[C@@H](C)CC` [(S)-3-[(S)-2-((S)-2-Acetylamino-3,3-diphenyl-propionylamino)-5-guanidino-pentanoylamino]-N-((1S,2S)-1-{(1S,2S)-1-[(S)-1-carboxy-2-(1H-indol-3-yl)-ethylcarbamoyl]-2-methyl-butylcarbamoyl}-2-methyl-butyl)-succinamic acid], for which the midpoint of inhibition, the IC50, lay at 14 nM. Compound `CC[C@H](C)[C@H](NC(=O)[C@H](CC(=O)O)NC(=O)[C@H](CC(C)C)NC(=O)[C@H](NC(C)=O)C(c1ccccc1)c1ccccc1)C(=O)N[C@@H](Cc1ccccc1)C(=O)N[C@@H](Cc1c[nH]c2ccccc12)C(=O)O` [(S)-3-[(S)-2-((S)-2-Acetylamino-3,3-diphenyl-propionylamino)-4-methyl-pentanoylamino]-N-((1S,2S)-1-{(S)-1-[(S)-1-carboxy-2-(1H-indol-3-yl)-ethylcarbamoyl]-2-phenyl-ethylcarbamoyl}-2-methyl-butyl)-succinamic acid] had an IC50 of over 10000 nM. The compound `CC[C@H](C)[C@H](NC(=O)[C@H](CC(=O)O)NC(=O)[C@H](CCCN)NC(=O)[C@@H](NC(C)=O)C(c1ccccc1)c1ccccc1)C(=O)N[C@H](C(=O)N[C@@H](Cc1c[nH]c2ccccc12)C(=O)O)[C@@H](C)CC` [(S)-3-[(S)-2-((S)-2-Acetylamino-3,3-diphenyl-propionylamino)-5-amino-pentanoylamino]-N-((1S,2S)-1-{(1S,2S)-1-[(S)-1-carboxy-2-(1H-indol-3-yl)-ethylcarbamoyl]-2-methyl-butylcarbamoyl}-2-methyl-butyl)-succinamic acid] (Ac-[Dip][Orn]DIIW-OH) returned an IC50 of 30 nM.

In turn, `CC[C@H](C)[C@H](NC(=O)[C@H](CC(=O)O)NC(=O)[C@H](CC(C)C)NC(=O)[C@H](NC(C)=O)C(c1ccccc1)c1ccccc1)C(=O)N[C@@H](CC(C)C)C(=O)N[C@@H](Cc1c[nH]c2ccccc12)C(=O)O` [(S)-3-[(S)-2-((S)-2-Acetylamino-3,3-diphenyl-propionylamino)-4-methyl-pentanoylamino]-N-((1S,2S)-1-{(S)-1-[(S)-1-carboxy-2-(1H-indol-3-yl)-ethylcarbamoyl]-3-methyl-butylcarbamoyl}-2-methyl-butyl)-succinamic acid] gave an IC50 of 340 nM. `CC[C@H](C)[C@H](NC(=O)[C@H](CCC(=O)O)NC(=O)[C@H](CC(=O)O)NC(=O)[C@H](CC(C)C)NC(=O)[C@H](NC(C)=O)C(c1ccccc1)c1ccccc1)C(=O)N[C@@H](Cc1c[nH]c2ccccc12)C(=O)O` [(S)-4-{(S)-2-[(S)-2-((S)-2-Acetylamino-3,3-diphenyl-propionylamino)-4-methyl-pentanoylamino]-3-carboxy-propionylamino}-4-{(1S,2S)-1-[(S)-1-carboxy-2-(1H-indol-3-yl)-ethylcarbamoyl]-2-methyl-butylcarbamoyl}-butyric acid] (Ac-[dDip]LDEIW-OH): the IC50 is 450 nM.

`CC[C@H](C)[C@H](NC(=O)[C@H](CCCCN)NC(=O)[C@H](CC(=O)O)NC(=O)[C@H](CC(C)C)NC(=O)[C@H](NC(C)=O)C(c1ccccc1)c1ccccc1)C(=O)N[C@@H](Cc1c[nH]c2ccccc12)C(=O)O` [(S)-3-[(S)-2-((S)-2-Acetylamino-3,3-diphenyl-propionylamino)-4-methyl-pentanoylamino]-N-((S)-5-amino-1-{(1S,2S)-1-[(S)-1-carboxy-2-(1H-indol-3-yl)-ethylcarbamoyl]-2-methyl-butylcarbamoyl}-pentyl)-succinamic acid]: the IC50 was over 10000 nM. The compound `CC[C@H](C)[C@H](NC(=O)[C@H](CC(=O)O)NC(=O)[C@H](CCC(=O)O)NC(=O)[C@H](NC(C)=O)C(c1ccccc1)c1ccccc1)C(=O)N[C@H](C(=O)N[C@@H](Cc1c[nH]c2ccccc12)C(=O)O)[C@@H](C)CC` [(S)-4-((S)-2-Acetylamino-3,3-diphenyl-propionylamino)-4-[(S)-2-carboxy-1-((1S,2S)-1-{(1S,2S)-1-[(S)-1-carboxy-2-(1H-indol-3-yl)-ethylcarbamoyl]-2-methyl-butylcarbamoyl}-2-methyl-butylcarbamoyl)-ethylcarbamoyl]-butyric acid] (Ac-[dDip]EDIIW-OH) gave an IC50 of 130 nM.
